# Values quoted from earlier work in patent publication US20080139497A1, “Use of ATP in controlled regional reperfusion as treatment during acute myocardial infarction” (priority 2006, published 2008).
# Like-named read-outs stand apart in the source and are kept apart here.
# Key:
# [1] = small amount, exogenously administered, hypoxic myocardium
# [2] = test system: cultured myocardial cells; conditions: addition to cultured myocardial cells
# [3] = injected into isolated nonperfused hypothermic dog hearts
# isolated muscle fibers = conditions: externally added
# [4] = infusion; after hemorrhagic shock, severe burns, sepsis-peritonitis, post-ischemic hepatic failure, endotoxin shock
# [5] = after acute renal failure in rats
# [6] = after acute renal failure in mini-pigs
# [7] = added to the perfusate
# [8] = from a toxic injury
# [9] = following normothermic ischemia, infusion of low dose
# [10] = following prolonged ischemia, infusion
# [11] = in man
# [12] = infused into left coronary artery, patients with coronary artery disease
# [13] = treatment after experimental acute myocardial ischemia
molecule,measurement,setting,value
Nc1ncnc2c1ncn2[C@@H]1O[C@H](COP(=O)(O)OP(=O)(O)O)[C@@H](O)[C@H]1O [ADP],ATP and total adenine nucleotide content,[1],not
Nc1ncnc2c1ncn2[C@@H]1O[C@H](COP(=O)(O)O)[C@@H](O)[C@H]1O [AMP],ATP and total adenine nucleotide content,[1],not
same,ATP content,[2],neither adenosine nor AMP produced this effect
"Nc1ncnc2c1ncn2[C@@H]1O[C@H](COP(=O)(O)OP(=O)(O)OP(=O)(O)O)[C@@H](O)[C@H]1O [ATP, adenosine 5′-triphosphate]",nucleotide and phosphocreatine levels,[3],improved nucleotide and phosphocreatine levels
same,ATP and total adenine nucleotide content,[1],increased the ATP and total adenine nucleotide content
same,contraction,isolated muscle fibers,induced contraction
same,ATP content,[2],caused an increase in ATP content
Nc1ncnc2c1ncn2[C@@H]1O[C@H](CO)[C@@H](O)[C@H]1O [adenosine],ATP content,[2],neither adenosine nor AMP produced this effect
ATP-MgCl2,survival of animals,[4],proved beneficial for the survival of animals
same,recovery of renal function,[5],accelerate the recovery of renal function
same,recovery of renal function,[6],accelerate the recovery of renal function
same,salvage of kidneys subjected to warm ischemia,[7],could be salvaged
same,renal recovery,[8],effective in hastening renal recovery
same,ornithine metabolism and tissue lactate level,"during hemorrhagic shock, exogenously administered",can reverse the inhibition of ornithine metabolism and the change in tissue lactate level
same,tissue lactate production,infused,decreased tissue lactate production
same,myocardial recovery,[9],improved myocardial recovery
same,myocardial performance,[10],can improve myocardial performance
same,safety and hemodynamic response,[11],has been demonstrated
same,myocardial oxygen consumption,[12],reduction of myocardial oxygen consumption
same,protection of the heart from ischemia,[13],protects the heart from the adverse effects of ischemia
